# Measured values: publication PMC9250534, “Synthesis and direct assay of large macrocycle diversities by combinatorial late-stage modification at picomole scale” (Nature Communications, 2022)
# Numbered stars: 1 amine (or outer) side, 2 acyl side, 3 side chain; on linkers, the order of the positions; unused ones are H or OH. Bridge positions count the residues as written; N and C are the ends. Square brackets hold non-standard residues; d marks the D form. Peptide text beside a SMILES is read from it. * marks the point of attachment. Pyrazinoyl(5-oxo-4H) = O=C(c1c[nH]c(=O)cn1)*; Isoxazole3carbonyl(5-Me) = Cc1cc(C(=O)*)no1; 1,2,3Thiadiazole5CO(4-Me) = Cc1nnsc1C(=O)*; Benzoyl(3-CF3) = O=C(c1cccc(C(F)(F)F)c1)*; Isoorotoyl = O=C(c1c[nH]c(=O)[nH]c1=O)*; Benzoyl(3,5-F2) = O=C(c1cc(F)cc(F)c1)*; Nicotinoyl(6-OMe) = COc1ccc(C(=O)*)cn1; 2Thenoyl(5-Cl) = O=C(c1ccc(Cl)s1)*; Phenoxyacetyl = O=C(COc1ccccc1)*; Cysteamide = C(CS[*:3])N[*:1]; X13 = O=C(c1ccc2[nH]cnc2c1)*; X3 = O=C(Cc1c[nH]c2ccccc12)*; Isovaleryl = CC(C)CC(=O)*; 2Furoyl = O=C(c1ccco1)*; Dap = NC[C@H](N)C(=O)O; Mpa = O=C(O)CCS
# Molecular target: MDM2 (Homo sapiens, UniProt Q00987)
# Sequence (Q00987 whole entry): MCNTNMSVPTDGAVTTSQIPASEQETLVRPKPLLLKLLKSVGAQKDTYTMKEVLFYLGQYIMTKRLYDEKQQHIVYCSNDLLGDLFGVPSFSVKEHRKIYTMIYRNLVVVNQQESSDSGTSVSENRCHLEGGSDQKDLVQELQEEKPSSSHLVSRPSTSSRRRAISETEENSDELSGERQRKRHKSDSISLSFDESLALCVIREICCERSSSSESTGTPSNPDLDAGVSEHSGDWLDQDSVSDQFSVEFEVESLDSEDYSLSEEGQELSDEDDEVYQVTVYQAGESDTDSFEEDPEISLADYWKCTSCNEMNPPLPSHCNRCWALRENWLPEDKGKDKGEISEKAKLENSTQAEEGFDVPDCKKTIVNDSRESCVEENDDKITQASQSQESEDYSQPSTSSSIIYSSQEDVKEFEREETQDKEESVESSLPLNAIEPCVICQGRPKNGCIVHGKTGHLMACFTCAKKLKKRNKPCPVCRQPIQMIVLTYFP
# Assay: MDM2 binding screen: displacement of fluorescent p53 peptide probe FP53 (fluorescence polarization)
# Conditions: 10 µM macrocycle concentration; crude acylated macrocycle (scaffold Mpa-AA1-AA2-AA3 x carboxylic acid); p53-based fluorescent peptide, human MDM2
# In short: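 Single-point screen: one fluorescence anisotropy reading at 25 °C (485 nm excitation, 535 nm emission) per macrocycle. Crude macrocycle reactions, final 10 µM, were scored for displacing the fluorescent p53 peptide from human MDM2.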
row,SMILES,fraction fluorescent probe displaced
1,Cc1cc(C(=O)NC[C@@H]2NC(=O)[C@@H]3CCCN3C(=O)CCSSCCNC(=O)[C@H](Cc3ccccc3)NC2=O)no1 [X-B1-D3-F + A3] ([Mpa]P[Dap](Isoxazole3carbonyl(5-Me))F-Cysteamide; disulfide 1-C),0.08125
2,O=C(NC[C@@H]1NC(=O)[C@@H]2CCCN2C(=O)CCSSCCNC(=O)[C@H](Cc2ccccc2)NC1=O)c1ccc2[nH]cnc2c1 [X-B1-D3-F + A6] ([Mpa]P[Dap](X13)F-Cysteamide; disulfide 1-C),-0.003922
3,CC(=O)NC[C@@H]1NC(=O)[C@@H]2CCCN2C(=O)CCSSCCNC(=O)[C@H](Cc2ccccc2)NC1=O [X-B1-D3-F + A7] ([Mpa]P[Dap](Ac)F-Cysteamide; disulfide 1-C),0.02548
4,CC(C)CC(=O)NC[C@@H]1NC(=O)[C@@H]2CCCN2C(=O)CCSSCCNC(=O)[C@H](Cc2ccccc2)NC1=O [X-B1-D3-F + A8] ([Mpa]P[Dap](Isovaleryl)F-Cysteamide; disulfide 1-C),-0.02974
5,O=C(NC[C@@H]1NC(=O)[C@@H]2CCCN2C(=O)CCSSCCNC(=O)[C@H](Cc2ccccc2)NC1=O)c1c[nH]c(=O)cn1 [X-B1-D3-F + A9] ([Mpa]P[Dap](Pyrazinoyl(5-oxo-4H))F-Cysteamide; disulfide 1-C),-0.0026
6,COc1ccc(C(=O)NC[C@@H]2NC(=O)[C@@H]3CCCN3C(=O)CCSSCCNC(=O)[C@H](Cc3ccccc3)NC2=O)cn1 [X-B1-D3-F + A10] ([Mpa]P[Dap](Nicotinoyl(6-OMe))F-Cysteamide; disulfide 1-C),0.01535
7,O=C(NC[C@@H]1NC(=O)[C@@H]2CCCN2C(=O)CCSSCCNC(=O)[C@H](Cc2ccccc2)NC1=O)c1c[nH]c(=O)[nH]c1=O [X-B1-D3-F + A11] ([Mpa]P[Dap](Isoorotoyl)F-Cysteamide; disulfide 1-C),0.04782
8,O=C(Cc1c[nH]c2ccccc12)NC[C@@H]1NC(=O)[C@@H]2CCCN2C(=O)CCSSCCNC(=O)[C@H](Cc2ccccc2)NC1=O [X-B1-D3-F + A12] ([Mpa]P[Dap](X3)F-Cysteamide; disulfide 1-C),0.03497
9,O=C(COc1ccccc1)NC[C@@H]1NC(=O)[C@@H]2CCCN2C(=O)CCSSCCNC(=O)[C@H](Cc2ccccc2)NC1=O [X-B1-D3-F + A13] ([Mpa]P[Dap](Phenoxyacetyl)F-Cysteamide; disulfide 1-C),0.1199
10,O=C(NC[C@@H]1NC(=O)[C@@H]2CCCN2C(=O)CCSSCCNC(=O)[C@H](Cc2ccccc2)NC1=O)c1ccc(Cl)s1 [X-B1-D3-F + A14] ([Mpa]P[Dap](2Thenoyl(5-Cl))F-Cysteamide; disulfide 1-C),0.08192
11,"Cc1nnsc1C(=O)NC[C@@H]1NC(=O)[C@@H]2CCCN2C(=O)CCSSCCNC(=O)[C@H](Cc2ccccc2)NC1=O [X-B1-D3-F + A15] ([Mpa]P[Dap](1,2,3Thiadiazole5CO(4-Me))F-Cysteamide; disulfide 1-C)",-0.03374
12,O=C(NC[C@@H]1NC(=O)[C@@H]2CCCN2C(=O)CCSSCCNC(=O)[C@H](Cc2ccccc2)NC1=O)c1ccco1 [X-B1-D3-F + A16] ([Mpa]P[Dap](2Furoyl)F-Cysteamide; disulfide 1-C),-0.04895
13,O=C(NC[C@@H]1NC(=O)[C@@H]2CCCN2C(=O)CCSSCCNC(=O)[C@H](Cc2ccccc2)NC1=O)c1cccc(C(F)(F)F)c1 [X-B1-D3-F + A18] ([Mpa]P[Dap](Benzoyl(3-CF3))F-Cysteamide; disulfide 1-C),0.09317
14,"O=C(NC[C@@H]1NC(=O)[C@@H]2CCCN2C(=O)CCSSCCNC(=O)[C@H](Cc2ccccc2)NC1=O)c1cc(F)cc(F)c1 [X-B1-D3-F + A23] ([Mpa]P[Dap](Benzoyl(3,5-F2))F-Cysteamide; disulfide 1-C)",0.02873
